EC50 data for 38 compounds are collected here from PubChem BioAssay AID624460 (Sanford-Burnham Center for Chemical Genomics, 2012).

Structures are written as SMILES. Values joined by “and” are separate entries in the source; they are usually repeats but may differ in a detail not shown here. Equal entries are not always repeated. Active and inactive are the calls of the source.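 How the source made its calls: active means protection of heart cells from peroxide damage with half-maximal concentration of 20 µM or lower (some results past the limit were not filed as active); inactive means the rest.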

The test system of this test is HL-1 cardiomyocytes, H2O2 injury, ATPLite viability, 2 h. The experiment in a line: protection of HL-1 cardiomyocytes from peroxide, SAR follow-up, HL-1 cells, set 2 (AID 624460).
For orientation: EC50 means the concentration giving half of the maximal effect. Turning to `COc1ccc2c(c1OC)C(=O)N1c3ccccc3C(=O)N(c3ccc(Br)cc3)C21` (stereo not drawn), the EC50 is > 79 µM (inactive).

As for `COc1cc(-c2cc(C(=O)Nc3ccc(C(C)=O)cc3)c3ccccc3n2)cc(OC)c1OC`, the EC50 is 9.93 µM. Next, `COc1ccc2c(c1OC)C(=O)N1c3ccccc3C(=O)N(c3cccc(C)c3)C21` (stereo not drawn): 60.3 µM (inactive); `COc1cc(-c2cc(C(=O)Nc3cccc(C)c3)c3ccccc3n2)cc(OC)c1OC`: > 79 µM (inactive); `COc1cc(-c2cc(C(=O)Nc3ccccc3)c3ccccc3n2)cc(OC)c1OC`: > 79 µM (inactive).

Take `COc1cccc(CNC(=O)c2cc(-c3cc(OC)c(OC)c(OC)c3)nc3ccccc23)c1`: the EC50 is 10.7 µM (inactive). For `COc1ccc2c(c1OC)C(=O)N1c3ccccc3C(=O)N(c3ccc(C(C)(C)C)cc3)C21` (stereo not drawn) the value was > 79 µM (inactive); for `O=C1c2ccccc2N2C(=O)c3ccccc3C2N1c1ccccc1` (stereo not drawn), > 79 µM (inactive). Next, `COc1cc(-c2cc(C(=O)Nc3cccc(F)c3)c3ccccc3n2)cc(OC)c1OC`: 16.4 µM (inactive); `COc1cccc(-c2cc(C(=O)Nc3cccc(C(C)=O)c3)c3ccccc3n2)c1`: > 79 µM (inactive).

Regarding `CCN(CC(=O)Nc1ccc(C)cc1)C(=O)c1cc(-c2cccs2)nn1-c1ccccc1`, the EC50 is > 79 µM (inactive). For `O=C1c2ccccc2N2C(=O)c3ccccc3C2N1c1cccc(Br)c1` (stereo not drawn) the value was > 79 µM (inactive). For `COc1ccc(NC(=O)c2cc(-c3cc(OC)c(OC)c(OC)c3)nc3ccccc23)cc1` the value was 10.2 µM (inactive).

As to `COc1ccc2c(c1OC)C(=O)N1c3ccccc3C(=O)N(c3cccc(C(F)(F)F)c3)C21` (stereo not drawn), the EC50 was > 79 µM (inactive). For `COc1ccc2c(c1OC)C(=O)N1c3ccccc3C(=O)N(c3cccc(Cl)c3)C21` (stereo not drawn) the value was > 79 µM (inactive); for `CCN(CC(=O)Nc1ccc(F)cc1)C(=O)c1cc(-c2cccs2)nn1-c1ccccc1`, > 79 µM (inactive); for `COc1cc(-c2cc(C(=O)Nc3cccc(C(C)=O)c3)c3ccccc3n2)cc(OC)c1OC`, 1.47 µM and 8.54 µM. Next, `COc1ccc2c(c1OC)C(=O)N1c3ccccc3C(=O)N(c3ccc(C)cc3)C21` (stereo not drawn): > 79 µM (inactive).

For the compound `CCOC(=O)c1cccc(NC(=O)c2cc(-c3cc(OC)c(OC)c(OC)c3)nc3ccccc23)c1`, the EC50 is 3.15 µM.

On to `COc1cccc(N2C(=O)c3ccccc3N3C(=O)c4c(ccc(OC)c4OC)C23)c1` (stereo not drawn), for which the EC50 is > 79 µM (inactive). In the case of `COc1cc(-c2cc(C(=O)Nc3cccc(Cl)c3)c3ccccc3n2)cc(OC)c1OC`, the EC50 is > 79 µM (inactive). Next, `COc1ccc2c(c1OC)C(=O)N1c3ccccc3C(=O)N(c3cccc(F)c3)C21` (stereo not drawn): 34.7 µM (inactive).

As to `COc1ccc(-c2cc(C(=O)Nc3cccc(C(C)=O)c3)c3ccccc3n2)cc1OC`, the EC50 is > 79 µM (inactive). For `CC(=O)c1cccc(NC(=O)c2cc(-c3ccccc3)nc3ccccc23)c1` the value was > 79 µM (inactive); for `COc1ccc2c(c1OC)C(=O)N1c3ccccc3C(=O)N(Cc3ccccc3Cl)C21` (stereo not drawn), > 79 µM (inactive); for `COc1cccc(N2C(=O)c3ccccc3N3C(=O)c4ccccc4C23)c1` (stereo not drawn), > 79 µM (inactive). For `COc1ccc(-c2cc(C(=O)Nc3cccc(C(C)=O)c3)c3ccccc3n2)cc1` the value was > 79 µM (inactive); for `COc1ccc2c(c1OC)C(=O)N1c3ccccc3C(=O)N(c3cccc(Br)c3)C21` (stereo not drawn), 3.29 µM and > 79 µM (inactive). For `COc1ccc2c(c1OC)C(=O)N1c3ccccc3C(=O)N(Cc3cccc(Cl)c3)C21` (stereo not drawn) the value was > 79 µM (inactive); for `COc1cc(-c2cc(C(=O)Nc3cccc(C(F)(F)F)c3)c3ccccc3n2)cc(OC)c1OC`, > 79 µM (inactive); for `COc1cccc(NC(=O)c2cc(-c3cc(OC)c(OC)c(OC)c3)nc3ccccc23)c1`, 9.39 µM. On to `CCN(CC(=O)Nc1ccc(OC)cc1)C(=O)c1cc(-c2cc(OC)c(OC)c(OC)c2)nc2ccccc12`, for which the EC50 was 9.39 µM.

As for `COc1cccc(CNC(=O)c2cc(-c3ccc(OC)c(OC)c3)nc3ccccc23)c1`, the EC50 is 10.6 µM (inactive).

Regarding `CCN(CC(=O)Nc1ccccc1)C(=O)c1cc(-c2cccs2)nn1-c1ccccc1`, the EC50 is > 79 µM (inactive). For `COc1ccc2c(c1OC)C(=O)N1c3ccccc3C(=O)N(c3ccccc3)C21` (stereo not drawn) the value was > 79 µM (inactive); for `CCN(CC(=O)Nc1ccc(OC)cc1)C(=O)c1cc(-c2cccs2)nn1-c1ccccc1`, 70.2 µM (inactive) and > 79 µM (inactive).

For `COc1cc(-c2cc(C(=O)Nc3cccc(C(C)=O)c3)c3cc(Cl)ccc3n2)cc(OC)c1OC`, the EC50 is 3.26 µM. On to `COc1ccc(N2C(=O)c3ccccc3N3C(=O)c4c(ccc(OC)c4OC)C23)cc1` (stereo not drawn), for which the EC50 was 23.5 µM (inactive).
